Experimental data as given in patent US10654832B2, “3-(benzoimidazol-2-YL)-indazole inhibitors of the Wnt signaling pathway and therapeutic uses thereof” (Samumed, LLC, priority 2013, dated 2020).
pIC50: −log10 of the molar value.

Tested on: Wnt activity (wnt-responsive SP5 promoter luciferase reporter in SW480 cells)
Assay: Wnt activity reporter assay (SP5 promoter-firefly luciferase in SW480 cells)
Format: cell-based
Details: Homo sapiens; SW480 colon cancer cells with SP5 promoter luciferase reporter; 24 h after compound addition; half-log dilutions, three micromolar top concentration; normalized to DMSO; read-out: Wnt inhibition
Source text: The above synthesized compounds were screened using the assay procedure for Wnt activity described below.
Reporter cell lines were generated by stably transducing cells of cancer cell lines (e.g., colon cancer) with a lentiviral construct that include a wnt-responsive promoter driving expression of the firefly luciferase gene.
Lentiviral constructs were made in which the SP5 promoter, a promoter having eight TCF/LEF binding sites derived from the SP5 promoter, was linked upstream of the firefly luciferase gene. The lentiviral constructs included a hygromycin resistance gene as a selectable marker. The SP5 promoter construct was used to transduce SW480 cells, a colon cancer cell line having a mutated APC gene that generates a truncated APC protein, leading to de-regulated accumulation of β-catenin.
Cultured SW480 cells bearing a reporter construct were distributed at approximately 10,000 cells per well into 384 well multiwell plates. Compounds were then added to the wells in half-log dilutions using a three micromolar top concentration. A series of control wells for each cell type received only buffer and compound solvent. Twenty-four hours after the addition of compound, reporter activity for luciferases was assayed, for example, by addition of the BrightGlo luminescence reagent (Promega) and the Victor3 plate reader (Perkin Elmer). Readings were normalized to DMSO only treated cells, and normalized activities were then used for the IC50 calculations.

CCCCC(=O)Nc1cncc(-c2ccc3[nH]nc(-c4nc5c(-c6cccc(F)c6)cccc5[nH]4)c3c2)c1 [Compound 18, N-(5-(3-(4-(3-Fluorophenyl)-1H-benzo[d]imidazol-2-yl)-1H-indazol-5-yl)pyridin-3-yl)pentanamide]
pIC50: 7.52

c1cncc(-c2ccc3[nH]nc(-c4nc5ccccc5[nH]4)c3c2)c1 [Compound 220]
pIC50: 6.78

O=C(Nc1cncc(-c2ccc3[nH]nc(-c4nc5c(-c6ccncc6)cccc5[nH]4)c3c2)c1)C1CCC1 [Compound 116, N-(5-(3-(4-(Pyridin-4-yl)-1H-benzo[d]imidazol-2-yl)-1H-indazol-5-yl)pyridin-3-yl)cyclobutanecarboxamide]
pIC50: 7.64

CC(C)Nc1cncc(-c2ccc3[nH]nc(-c4nc5c(N6CCCCC6)cccc5[nH]4)c3c2)c1 [Compound 156, N-Isopropyl-5-(3-(4-(piperidin-1-yl)-1H-benzo[d]imidazol-2-yl)-1H-indazol-5-yl)pyridin-3-amine]
pIC50: 7.18

Cc1ccncc1-c1ccc2[nH]nc(-c3nc4c(-c5ccc(F)cc5)cccc4[nH]3)c2c1 [Compound 29, 3-(4-(4-Fluorophenyl)-1H-benzo[d]imidazol-2-yl)-5-(4-methylpyridin-3-yl)-1H-indazole]
pIC50: 7.00

O=C(Nc1cncc(-c2ccc3[nH]nc(-c4nc5ccccc5[nH]4)c3c2)c1)C1CCCCC1 [Compound 238, N-(5-(3-(1H-Benzo[d]imidazol-2-yl)-1H-indazol-5-yl)pyridin-3-yl) cyclohexanecarboxamide]
pIC50: 6.83

CCCC(=O)Nc1cncc(-c2ccc3[nH]nc(-c4nc5c(-c6ccoc6)cccc5[nH]4)c3c2)c1 [Compound 281, N-(5-(3-(4-(Furan-3-yl)-1H-benzo[d]imidazol-2-yl)-1H-indazol-5-yl)pyridin-3-yl)butyramide]
pIC50: 7.60

CC(C)Nc1cncc(-c2ccc3[nH]nc(-c4nc5c(-c6ccncc6)cccc5[nH]4)c3c2)c1 [Compound 108, N-Isopropyl-5-(3-(4-(pyridin-4-yl)-1H-benzo[d]imidazol-2-yl)-1H-indazol-5-yl)pyridin-3-amine]
pIC50: 7.80

CC(C)C(=O)Nc1cncc(-c2ccc3[nH]nc(-c4nc5c(-c6ccc(F)cc6)cccc5[nH]4)c3c2)c1 [Compound 33, N-(5-(3-(4-(4-Fluorophenyl)-1H-benzo[d]imidazol-2-yl)-1H-indazol-5-yl)pyridin-3-yl)isobutyramide]
pIC50: 7.47

CC(C)(C)C(=O)Nc1cncc(-c2ccc3[nH]nc(-c4nc5c(-c6ccncc6)cccc5[nH]4)c3c2)c1 [Compound 104, N-(5-(3-(4-(Pyridin-4-yl)-1H-benzo[d]imidazol-2-yl)-1H-indazol-5-yl)pyridin-3-yl)pivalamide]
pIC50: 7.19

CN1CCN(c2cccc3[nH]c(-c4n[nH]c5ccc(-c6cccnc6)cc45)nc23)CC1 [Compound 196, 3-(4-(4-Methylpiperazin-1-yl)-1H-benzo[d]imidazol-2-yl)-5-(pyridin-3-yl)-1H-indazole]
pIC50: 7.55

O=C(Nc1cncc(-c2ccc3[nH]nc(-c4nc5c(-c6ccccn6)cccc5[nH]4)c3c2)c1)C1CCC1 [Compound 140, N-(5-(3-(4-(Pyridin-2-yl)-1H-benzo[d]imidazol-2-yl)-1H-indazol-5-yl)pyridin-3-yl)cyclobutanecarboxamide]
pIC50: 8.10

O=C(Nc1cncc(-c2ccc3[nH]nc(-c4nc5c(-c6ccncc6)cccc5[nH]4)c3c2)c1)C1CCCC1 [Compound 117, N-(5-(3-(4-(Pyridin-4-yl)-1H-benzo[d]imidazol-2-yl)-1H-indazol-5-yl)pyridin-3-yl)cyclopentanecarboxamide]
pIC50: 7.27

Cc1ccncc1-c1ccc2[nH]nc(-c3nc4c(-c5cccc(F)c5)cccc4[nH]3)c2c1 [Compound 5, 3-(4-(3-Fluorophenyl)-1H-benzo[d]imidazol-2-yl)-5-(4-methylpyridin-3-yl)-1H-indazole]
pIC50: 7.47

CCCC(=O)Nc1cncc(-c2ccc3[nH]nc(-c4nc5c(-c6ccc(F)cc6)cccc5[nH]4)c3c2)c1 [Compound 41, N-(5-(3-(4-(4-Fluorophenyl)-1H-benzo[d]imidazol-2-yl)-1H-indazol-5-yl)pyridin-3-yl)butyramide]
pIC50: 7.82

O=C(Nc1cncc(-c2ccc3[nH]nc(-c4nc5c(-c6cccnc6)cccc5[nH]4)c3c2)c1)C1CCC1 [Compound 92, N-(5-(3-(4-(Pyridin-3-yl)-1H-benzo[d]imidazol-2-yl)-1H-indazol-5-yl)pyridin-3-yl)cyclobutanecarboxamide]
pIC50: 8.10

O=C(Nc1cncc(-c2ccc3[nH]nc(-c4nc5c(-c6ccccn6)cccc5[nH]4)c3c2)c1)C1CCCCC1 [Compound 142, N-(5-(3-(4-(Pyridin-2-yl)-1H-benzo[d]imidazol-2-yl)-1H-indazol-5-yl)pyridin-3-yl)cyclohexanecarboxamide]
pIC50: 6.81

O=C(Nc1cncc(-c2ccc3[nH]nc(-c4nc5ccccc5[nH]4)c3c2)c1)c1ccccc1 [Compound 227, N-(5-(3-(1H-Benzo[d]imidazol-2-yl)-1H-indazol-5-yl)pyridin-3-yl) benzamide]
pIC50: 7.00

c1cc(-c2ccncc2)c2nc(-c3n[nH]c4ccc(-c5cncc(CN6CCCC6)c5)cc34)[nH]c2c1 [Compound 110, 3-(4-(Pyridin-4-yl)-1H-benzo[d]imidazol-2-yl)-5-(5-(pyrrolidin-1-ylmethyl)pyridin-3-yl)-1H-indazole]
pIC50: 6.69

CN(C)c1cncc(-c2ccc3[nH]nc(-c4nc5c(-c6cccc(F)c6)cccc5[nH]4)c3c2)c1 [Compound 7, 5-(3-(4-(3-Fluorophenyl)-1H-benzo[d]imidazol-2-yl)-1H-indazol-5-yl)-N,N-dimethylpyridin-3-amine]
pIC50: 8.10

O=C(Nc1cncc(-c2ccc3[nH]nc(-c4nc5c(N6CCCCC6)cccc5[nH]4)c3c2)c1)c1ccccc1 [Compound 155, N-(5-(3-(4-(Piperidin-1-yl)-1H-benzo[d]imidazol-2-yl)-1H-indazol-5-yl)pyridin-3-yl)benzamide]
pIC50: 6.54

CCCCC(=O)Nc1cncc(-c2ccc3[nH]nc(-c4nc5c(-c6ccc(F)cc6)cccc5[nH]4)c3c2)c1 [Compound 42, N-(5-(3-(4-(4-Fluorophenyl)-1H-benzo[d]imidazol-2-yl)-1H-indazol-5-yl)pyridin-3-yl)pentanamide]
pIC50: 7.48

O=C(Nc1cncc(-c2ccc3[nH]nc(-c4nc5ccccc5[nH]4)c3c2)c1)C1CC1 [Compound 235, N-(5-(3-(1H-Benzo[d]imidazol-2-yl)-1H-indazol-5-yl)pyridin-3-yl) cyclopropanecarboxamide]
pIC50: 7.60

CN(C)Cc1cncc(-c2ccc3[nH]nc(-c4nc5c(-c6ccccn6)cccc5[nH]4)c3c2)c1 [Compound 133, N,N-Dimethyl-1-(5-(3-(4-(pyridin-2-yl)-1H-benzo[d]imidazol-2-yl)-1H-indazol-5-yl)pyridin-3-yl)methanamine]
pIC50: 6.90

O=C(Nc1cncc(-c2ccc3[nH]nc(-c4nc5c(-c6cccnc6)cccc5[nH]4)c3c2)c1)C1CCCCC1 [Compound 94, N-(5-(3-(4-(Pyridin-3-yl)-1H-benzo[d]imidazol-2-yl)-1H-indazol-5-yl)pyridin-3-yl)cyclohexanecarboxamide]
pIC50: 6.92

Fc1ccccc1-c1cccc2[nH]c(-c3n[nH]c4ccc(-c5cncc(CN6CCCCC6)c5)cc34)nc12 [Compound 63, 3-(4-(2-Fluorophenyl)-1H-benzo[d]imidazol-2-yl)-5-(5-(piperidin-1-ylmethyl)pyridin-3-yl)-1H-indazole]
pIC50: 8.00
